# Reference: US11707442B2, “Antibacterial and antifungal compounds” (The General Hospital Corporation, priority 2015, dated 2023)
# “Also recorded” adds a separate entry of the source. Where two headings read alike, the source gives them in different places.
# Key:
# [1] = test system: S. aureus; experiment: Minimal inhibitory concentration (MIC), broth microdilution; format: cell-based, Staphylococcus aureus; conditions: for MIC: Staphylococcus aureus
# From the text: (§1) Bacterial strains and growth conditions and persister isolation: methicillin-resistant S. aureus (MRSA) strain MW2 BAA-1707, vancomycin-resistant S. aureus strain VRS 1, 11 clinical S. aureus isolates, 8 clinical Enterococcus faecium isolates, Klebsiella pneumoniae WGLW2 (BEI Resources, Manassas, Va., USA), Acinetobacter baumannii ATCC 17978, Pseudomonas aeruginosa PA14, and Enterobacter aerogenes ATCC 13048 were used to test antimicrobial activity (See Table 1a). S. aureus and E. faecium strains were grown in tryptic soy broth (TSB) (BD, Franklin Lakes, N.J., USA) or brain-heart infusion (BHI) broth (BD, Franklin Lakes, N.J., USA), respectively at 37° C. at 225 rpm. K. pneumoniae, A. baumannii, P. aeruginosa, and E. aerogenes were grown in Luria Bertani (LB) broth (BD, Franklin Lakes, N.J., USA).
# (§2) To test the bacterial MICs for compounds described herein, the total volume in each well was 100 μl of test compounds and bacterial cells in MH broth. […] The bacterial concentration was adjusted to an initial OD600 of 0.03. After incubation at 35° C. for 18 hrs, the absorbance was measured at 595 nm in accordance with CLSI document M07-A8. The MICs of antibiotics were determined by the standard microdilution method recommended by the Clinical and Laboratory Standards Institute.
# [2] = test system: E. faecium; experiment: MIC, broth microdilution; format: cell-based, Enterococcus faecium; conditions: for MIC: Enterococcus faecium
# From the text: as §1, §2
# [3] = test system: E. faecalis; experiment: MIC, broth microdilution; format: cell-based, Enterococcus faecalis; conditions: result in words
# Experimental: To test the bacterial MICs for compounds described herein, the total volume in each well was 100 μl of test compounds and bacterial cells in MH broth. Two-fold serial dilutions were carried out to get compounds in the concentration range 0.0625-64 μg/ml. The bacterial concentration was adjusted to an initial OD600 of 0.03. After incubation at 35° C. for 18 hrs, the absorbance was measured at 595 nm in accordance with CLSI document M07-A8. The MICs of antibiotics were determined by the standard microdilution method recommended by the Clinical and Laboratory Standards Institute.
# [4] = test system: C. elegans infected with MRSA strain MW2; format: in vivo; conditions: result in words
# Experimental: The C. elegans-MRSA liquid infection assay has been described (Rajamuthiah et al. Plos One. 2014; 9(2):e89189). In brief, 4,500 glp-4 (bn2); sek-1(km4) L1 hatchlings were grown on SK-HB101 agar plates for 52 hours at the restrictive temperature of 25° C. until animals became sterile young adults and later harvested with M9 buffer. S. aureus MW2 was grown overnight at 37° C. in TSB, first under aerobic conditions and later shifted to anaerobic growth conditions at 37° C. The infection assay was performed in standard 384-well assay plates, in the presence of the compound being tested or 1% dimethyl sulfoxide (DMSO) as a control. Bacteria were added to the wells at a final OD600 of 0.06, followed by the use of a Complex Object Parametric Analyzer and Sorter (COPAS) large particle sorter (Union Biometrica, Holliston, Mass., USA) to transfer 15 adult worms to each well of an assay plate. After 5 days of incubation in a humidified chamber at 25° C., the bacteria and other debris were washed from the wells with a microplate washer and the worms were stained with the vital dye Sytox Orange (Life Technologies). After overnight incubation at 25° C. in a humidified chamber, the plates were imaged using an Image Xpress Micro automated microscope (Molecular Devices, Sunnyvale, Calif., USA), capturing both transmitted light and TRITC (535 nm excitation, 610 nm emission) fluorescent images with a 2× objective. The images from the infection assay were processed using the open source image analysis software CellProfiler and analysis modules as described previously. The ratio of Sytox worm area to bright field worm area, and the resultant percentage survival data, is calculated by the software for each well of the assay plates. The assay was performed in triplicate comparing the survival of worms at various concentrations of drugs.
# Killing assays were carried out as described in Methods using S. aureus MRSA MW2 and 10 μg/ml retinoids, 10 μg/ml vancomycin (positive control), or 1% DMSO (negative control) at 25° C. for 5 days. Data are representative of three independent experiments. (B) Chemical structures of synthetic retinoids. (C) Growth of MRSA strain MW2 exposed to the indicated concentrations of compounds was quantified by measuring OD600 after 18 h in tryptic soy broth (TSB). (D) C. elegans infected with MRSA strain MW2 was treated with indicated concentrations of compounds. Percent survival of C. elegans was normalized to C. elegans treated with DMSO. (E-F) MRSA persisters prepared as described in Methods were treated with the indicated concentrations of each retinoid. Viability was measured by serial dilution and plating on TSA plates. The data points on the x-axis are below the level of detection (2×10^2 CFU/ml). (E,F) Results are shown as means±s.d.; n=3.
# [5] = test system: K. pneumonia WGLW2; experiment: MIC, broth microdilution; format: cell-based, Klebsiella pneumoniae; conditions: Klebsiella pneumoniae; K. pneumonia WGLW2; read-out: Minimum inhibitory concentration
# From the text: as §1, §2
# [6] = test system: A. baumannii; experiment: MIC, broth microdilution; format: cell-based, Acinetobacter baumannii; conditions: Acinetobacter baumannii, ATCC17978; A. baumannii ATCC 17978; read-out: Minimum inhibitory concentration
# From the text: as §1, §2
# [7] = test system: P. aeruginosa; experiment: MIC, broth microdilution; format: cell-based, Pseudomonas aeruginosa; conditions: Pseudomonas aeruginosa; P. aeruginosa PA14; read-out: Minimum inhibitory concentration
# From the text: as §1, §2
# [8] = test system: E. aerogenes ATCC 13048; experiment: MIC, broth microdilution; format: cell-based, Enterobacter aerogenes; conditions: Klebsiella aerogenes, ATCC13048; E. aerogenes ATCC 13048; read-out: Minimum inhibitory concentration
# From the text: as §1, §2
compound,measurement,setting,value
"COc1ccc(-c2ccc3cc(C(=O)O)ccc3c2)cc1C12CC3CC(CC(C3)C1)C2 [Adapalene, 6-(4-methoxy-3-tricyclo[3.3.1.13,7]dec-1-ylphenyl)-2-naphthalenecarboxylic acid]",direct inhibition of MRSA growth,"[1]; MRSA MW2, result in words",did not inhibit; also recorded: did not have significant antimicrobial activity
same,susceptibility of E. faecium,[2]; result in words,not inhibited
same,susceptibility of E. faecalis,[3],not inhibited
same,rescue of C. elegans from MRSA infection,[4],nor did it protect
Cc1onc(-c2ccccc2)c1C(=O)N[C@@H]1C(=O)N2[C@@H]1SC(C)(C)[C@@H]2C(=O)O [Oxacillin],MIC,"[1]; S. aureus BF1, read-out: Minimum inhibitory concentration",> 64 µg/mL
same,MIC,"[1]; S. aureus BF2, read-out: Minimum inhibitory concentration",> 64 µg/mL
same,MIC,"[1]; S. aureus BF3, read-out: Minimum inhibitory concentration",32 µg/mL
same,MIC,"[1]; S. aureus BF4, read-out: Minimum inhibitory concentration",16 µg/mL
same,MIC,"[1]; S. aureus BF5, read-out: Minimum inhibitory concentration",> 64 µg/mL
same,MIC,"[1]; S. aureus BF6, read-out: Minimum inhibitory concentration",1 µg/mL
same,MIC,"[1]; S. aureus BF7, read-out: Minimum inhibitory concentration",> 64 µg/mL
same,MIC,"[1]; S. aureus BF8, read-out: Minimum inhibitory concentration",> 64 µg/mL
same,MIC,"[1]; S. aureus BF9, read-out: Minimum inhibitory concentration",0.25 µg/mL
same,MIC,"[1]; S. aureus BF10, read-out: Minimum inhibitory concentration",> 64 µg/mL
same,MIC,"[1]; S. aureus BF11, read-out: Minimum inhibitory concentration",> 64 µg/mL
same,MIC,"[1]; S. aureus MW2, read-out: Minimum inhibitory concentration",64 µg/mL
same,MIC,"[1]; S. aureus VRS1, read-out: Minimum inhibitory concentration",> 64 µg/mL
same,MIC,"[1]; Staphylococcus aureus clinical isolate BF1 (Table 5), read-out: Drug MIC",> 64 µg/mL
same,MIC,"[1]; Staphylococcus aureus clinical isolate BF2 (Table 5), read-out: Drug MIC",> 64 µg/mL
same,MIC,"[1]; Staphylococcus aureus clinical isolate BF3 (Table 5), read-out: Drug MIC",32 µg/mL
same,MIC,"[1]; Staphylococcus aureus clinical isolate BF4 (Table 5), read-out: Drug MIC",16 µg/mL
same,MIC,"[1]; Staphylococcus aureus clinical isolate BF5 (Table 5), read-out: Drug MIC",> 64 µg/mL
same,MIC,"[1]; Staphylococcus aureus clinical isolate BF6 (Table 5), read-out: Drug MIC",1 µg/mL
same,MIC,"[1]; Staphylococcus aureus clinical isolate BF7 (Table 5), read-out: Drug MIC",> 64 µg/mL
same,MIC,"[1]; Staphylococcus aureus clinical isolate BF8 (Table 5), read-out: Drug MIC",> 64 µg/mL
same,MIC,"[1]; Staphylococcus aureus clinical isolate BF9 (Table 5), read-out: Drug MIC",0.25 µg/mL
same,MIC,"[1]; Staphylococcus aureus clinical isolate BF10 (Table 5), read-out: Drug MIC",> 64 µg/mL
same,MIC,"[1]; Staphylococcus aureus clinical isolate BF11 (Table 5), read-out: Drug MIC",> 64 µg/mL
same,MIC,"[2]; E. faecium C68, read-out: Minimum inhibitory concentration",> 64 µg/mL
same,MIC,"[2]; E. faecium D14, read-out: Minimum inhibitory concentration",> 64 µg/mL
same,MIC,"[2]; E. faecium D24, read-out: Minimum inhibitory concentration",> 64 µg/mL
same,MIC,"[2]; E. faecium D25, read-out: Minimum inhibitory concentration",> 64 µg/mL
same,MIC,"[2]; E. faecium D29, read-out: Minimum inhibitory concentration",> 64 µg/mL
same,MIC,"[2]; E. faecium E007, read-out: Minimum inhibitory concentration",> 64 µg/mL
same,MIC,"[2]; E. faecium WB213, read-out: Minimum inhibitory concentration",> 64 µg/mL
same,MIC,"[2]; E. faecium WC176, read-out: Minimum inhibitory concentration",> 64 µg/mL
same,MIC,"[2]; Enterococcus faecium clinical isolate C68 (Table 6), read-out: Drug MIC",> 64 µg/mL
same,MIC,"[2]; Enterococcus faecium clinical isolate D14 (Table 6), read-out: Drug MIC",2 µg/mL
same,MIC,"[2]; Enterococcus faecium clinical isolate D24 (Table 6), read-out: Drug MIC",1 µg/mL
same,MIC,"[2]; Enterococcus faecium clinical isolate D25 (Table 6), read-out: Drug MIC",1 µg/mL
same,MIC,"[2]; Enterococcus faecium clinical isolate D29 (Table 6), read-out: Drug MIC",2 µg/mL
same,MIC,"[2]; Enterococcus faecium clinical isolate W312 (Table 6), read-out: Drug MIC",> 64 µg/mL
same,MIC,"[2]; Enterococcus faecium clinical isolate WC176 (Table 6), read-out: Drug MIC",> 64 µg/mL
same,MIC,[5],> 64 µg/mL
same,MIC,[6],> 64 µg/mL
same,MIC,[7],> 64 µg/mL
same,MIC,[8],> 64 µg/mL
